# Columns and labels:
# [1] = Potentiometric titrations: protonation constants; assay type: physicochemical; conditions: potentiometry, 0.1 M KCl, 25° C.; for Protonation constant (log K) 2H+ + L ⇄ H2L2+ / Protonation constant (log K) 3H+ + L ⇄ H3L3+ / Protonation constant (log K) 4H+ + L ⇄ H4L4+: cumulative; for Protonation constant (log K) H+ + H2L2+ ⇄ H3L3+ / Protonation constant (log K) H+ + H3L3+ ⇄ H4L4+ / Protonation constant (log K) H+ + HL+ ⇄ H2L2+: stepwise
# Method: (§1) Potentiometric measurements were conducted using a Metrohm 792SM Titrino automated burette fitted with a combined glass electrode and an in-house designed jacketed glass cell thermostated at 25° C. suitable for small sample volumes (5 mL). The cell was sealed under an inert atmosphere. All solutions were made up using ultrapure CO2-free water from a Millipore Simplicity 185 system. The sample solutions contained 0.1 M KCl as a background electrolyte. The titrant base was made up from commercial (Riedel-de Haën) CO2-free concentrates of KOH, diluted to the required concentration (0.020 M) with a 0.080 M KCl solution to avoid problems of different ionic strengths. The glass electrode was calibrated by titrating well-known amounts of HCl (made up from Riedel-de Haën concentrates) with the base and determining the equivalence point using Gran's method (G. Gran, Analyst, 1952, 77, 661-671) yielding the ionic product of water (pKw=13.78), which was used as a constant in the subsequent analyses.
# (§2) Sample concentrations were typically 1.0-5.0×10^−3 M. A known excess of HCl was added to ensure full protonation of the receptor. The degree of protonation of our receptors was calculated from the onset of titration curve. […] A minimum of 250 points in the pH-range of 2.5-11.0 was taken for every titration, with at least 30 seconds between each addition to ensure equilibration. The computer program […]^I was used to determine the protonation and stability constants. For each system a minimum of three titrations were first treated as individual sets and then merged and fitted simultaneously to give the final constants.
# To study the binding in more detail we used potentiometry. To enable this, we first investigated the protonation constants of the receptors and the data is collected in Table 1. We calibrated our system with spermine (compound 4) and the data for this compound are also included in this table and were in accordance with literature values (Bazzicalupi et al, J. Am. Chem. Soc. 121: 6807-6815 (1999); De Stefano et al., J. Chem. Soc. Faraday Trans, 94:1091-1095 (1998); Bergeron et al., J. Med. Chem. 38:2278-2285 (1995)).
# [2] = Potentiometric titrations: binding of inorganic phosphate (equimolar KH2PO4 and receptor); conditions: for Binding constant (Log K) H3L3+ + HA2− ⇄ H4LA+ / Binding constant (Log K) H4L4+ + HA2− ⇄ H5LA2+ / Protonation and binding constant (Log K) 4H+ + L + A3− ⇄ H4LA+ / Protonation and binding constant (Log K) 5H+ + L + A3− ⇄ H5LA2+ / Binding constant (Log K) H2L2+ + HA2− ⇄ H3LA / Binding constant (Log K) H4L4+ + H2A− ⇄ H6LA3+ / Protonation and binding constant (Log K) 3H+ + L + A3− ⇄ H3LA / Protonation and binding constant (Log K) 6H+ + L + A3− ⇄ H6LA3+: A = phosphate, 0.1 M KCl, 25° C.; for Binding constant (Log K) H3L3+ + HA2− ⇄ H4LA+ / Binding constant (Log K) H4L4+ + HA2− ⇄ H5LA2+ / Protonation and binding constant (Log K) 4H+ + L + A3− ⇄ H4LA+ / Protonation and binding constant (Log K) 5H+ + L + A3− ⇄ H5LA2+ / affinity towards inorganic phosphate (log K), range over protonation states / Binding constant (Log K) H2L2+ + HA2− ⇄ H3LA / Binding constant (Log K) H4L4+ + H2A− ⇄ H6LA3+ / Protonation and binding constant (Log K) 3H+ + L + A3− ⇄ H3LA / Protonation and binding constant (Log K) 6H+ + L + A3− ⇄ H6LA3+: potentiometry; for Protonation and binding constant (Log K) 4H+ + L + A3− ⇄ H4LA+ / Protonation and binding constant (Log K) 5H+ + L + A3− ⇄ H5LA2+ / Protonation and binding constant (Log K) 3H+ + L + A3− ⇄ H3LA / Protonation and binding constant (Log K) 6H+ + L + A3− ⇄ H6LA3+: overall constant; for phosphate in solution bound by receptor: pH 7.0, from speciation diagrams of potentiometric data (FIG. 4); for affinity towards inorganic phosphate (log K), range over protonation states: summary of Table 2; for Binding constant (Log K) H2L2+ + HA2− ⇄ H3LA / Binding constant (Log K) H4L4+ + H2A− ⇄ H6LA3+ / Protonation and binding constant (Log K) 3H+ + L + A3− ⇄ H3LA / Protonation and binding constant (Log K) 6H+ + L + A3− ⇄ H6LA3+: dash = equilibrium does not occur significantly
# Method: as §1, §2
# [3] = Fluorimetric titrations: quenching of fluorescent phosphate derivative 13; conditions: 1:1 binding model; 0.1 M TRIS buffer pH 7.0; 13 at 5.0×10^−6 M
# Method: Titrations were performed on a Spex Fluoromax-II instrument at 25° C. in a 0.1 M TRIS buffer of pH 7.0, using an excitation wavelength of 324 nm.
# Upon titration of our receptors to a solution of this probe in buffered water (0.1 M Tris, pH 7.0) the emission of compound 13 was quenched indicating binding (FIG. 3).
# This is related to the trans configuration of the oligoamines around the conformationally restricted scaffold in compound 1 preventing the oligoamines from cooperating.
# [4] = literature (Bertsch et al.); cited from earlier work
SMILES,Protonation constant (log K) 2H+ + L ⇄ H2L2+ [1],Protonation constant (log K) 3H+ + L ⇄ H3L3+ [1],Protonation constant (log K) 4H+ + L ⇄ H4L4+ [1],Protonation constant (log K) H+ + L ⇄ HL+ [1],Protonation constant (log K) H+ + H2L2+ ⇄ H3L3+ [1],Protonation constant (log K) H+ + H3L3+ ⇄ H4L4+ [1],Protonation constant (log K) H+ + HL+ ⇄ H2L2+ [1],Binding constant (Log K) H3L3+ + HA2− ⇄ H4LA+ [2],Binding constant (Log K) H4L4+ + HA2− ⇄ H5LA2+ [2],Protonation and binding constant (Log K) 4H+ + L + A3− ⇄ H4LA+ [2],Protonation and binding constant (Log K) 5H+ + L + A3− ⇄ H5LA2+ [2],phosphate in solution bound by receptor [2],"affinity towards inorganic phosphate (log K), range over protonation states [2]",binding constant (log K) for fluorescent phosphate derivative 13 [3],Binding constant (Log K) H2L2+ + HA2− ⇄ H3LA [2],Binding constant (Log K) H4L4+ + H2A− ⇄ H6LA3+ [2],Protonation and binding constant (Log K) 3H+ + L + A3− ⇄ H3LA [2],Protonation and binding constant (Log K) 6H+ + L + A3− ⇄ H6LA3+ [2],first protonation pKa [4],second protonation pKa [4]
CN(CCCN)CCCNC(=O)/C=C/C(=O)NCCCN(C)CCCN [Compound 1],20.05,28.42,35.50,10.45,8.37,7.08,9.60,2.90,3.39,42.87,50.44,31%,2.9-3.4,no significant binding occurs,–,–,–,–,–,–
CN(CCCN)CCCNC(=O)[C@@H]1C2C=CC(C2)[C@H]1C(=O)NCCCN(C)CCCN [Compound 14],18.49,25.67,27.91,9.76,7.18,2.24,8.73,5.52,10.70,42.67 (3),50.09 (3),95%,–,–,4.37,10.17,34.34 (3),56.47 (3),–,–
"NCCN [1,2-diaminoethane]",–,–,–,–,–,–,–,–,–,–,–,–,–,–,–,–,–,–,10.1,7.0
CN(CCCN)CCCNC(=O)/C=C\C(=O)NCCCN(C)CCCN [Compound 2],19.06,26.52,30.27,10.04,7.46,3.75,9.02,5.27,8.55,43.27 (7),50.30 (7),95%,4.4-8.6,5.15,4.40,7.67,34.94 (4),56.33 (9),–,–
CN1CCCNCc2cccc(c2)CNCCCN(C)CCCNC(=O)/C=C\C(=O)NCCC1 [Compound 3],18.82,25.14,28.11,10.32,6.32,2.97,8.50,10.24,–,46.85 (4),53.76 (5),–,–,5.30,7.53,10.90,37.83 (4),57.40 (5),–,–
"NCCCNCCCCNCCCN [Compound 4, spermine, reference compound]",20.63,29.50,37.58,10.64,8.87,8.08,9.99,–,–,–,–,–,–,–,–,–,–,–,–,–
"NCCCCN [1,4-diaminobutane]",–,–,–,–,–,–,–,–,–,–,–,–,–,–,–,–,–,–,–,9.4
"NCCCN [1,3-diaminopropane]",–,–,–,–,–,–,–,–,–,–,–,–,–,–,–,–,–,–,10.6,8.6
